Test results from US8415469B2, “Compounds and methods for kinase modulation, and indications therefor” (Plexxikon Inc., priority 2005, dated 2013).

What was measured:
Format in all cases: biochemical
EphB2 = biological target: T1, EphB2 (Homo sapiens, UniProt P29323); experiment: Z'-Lyte FRET kinase assay (Invitrogen), EphB2; settings: read-out: IC50, activity toward kinase EphB2
T1 construct: purchased Invitrogen (assay run by Invitrogen)
T1 sequence (P29323 19-1055): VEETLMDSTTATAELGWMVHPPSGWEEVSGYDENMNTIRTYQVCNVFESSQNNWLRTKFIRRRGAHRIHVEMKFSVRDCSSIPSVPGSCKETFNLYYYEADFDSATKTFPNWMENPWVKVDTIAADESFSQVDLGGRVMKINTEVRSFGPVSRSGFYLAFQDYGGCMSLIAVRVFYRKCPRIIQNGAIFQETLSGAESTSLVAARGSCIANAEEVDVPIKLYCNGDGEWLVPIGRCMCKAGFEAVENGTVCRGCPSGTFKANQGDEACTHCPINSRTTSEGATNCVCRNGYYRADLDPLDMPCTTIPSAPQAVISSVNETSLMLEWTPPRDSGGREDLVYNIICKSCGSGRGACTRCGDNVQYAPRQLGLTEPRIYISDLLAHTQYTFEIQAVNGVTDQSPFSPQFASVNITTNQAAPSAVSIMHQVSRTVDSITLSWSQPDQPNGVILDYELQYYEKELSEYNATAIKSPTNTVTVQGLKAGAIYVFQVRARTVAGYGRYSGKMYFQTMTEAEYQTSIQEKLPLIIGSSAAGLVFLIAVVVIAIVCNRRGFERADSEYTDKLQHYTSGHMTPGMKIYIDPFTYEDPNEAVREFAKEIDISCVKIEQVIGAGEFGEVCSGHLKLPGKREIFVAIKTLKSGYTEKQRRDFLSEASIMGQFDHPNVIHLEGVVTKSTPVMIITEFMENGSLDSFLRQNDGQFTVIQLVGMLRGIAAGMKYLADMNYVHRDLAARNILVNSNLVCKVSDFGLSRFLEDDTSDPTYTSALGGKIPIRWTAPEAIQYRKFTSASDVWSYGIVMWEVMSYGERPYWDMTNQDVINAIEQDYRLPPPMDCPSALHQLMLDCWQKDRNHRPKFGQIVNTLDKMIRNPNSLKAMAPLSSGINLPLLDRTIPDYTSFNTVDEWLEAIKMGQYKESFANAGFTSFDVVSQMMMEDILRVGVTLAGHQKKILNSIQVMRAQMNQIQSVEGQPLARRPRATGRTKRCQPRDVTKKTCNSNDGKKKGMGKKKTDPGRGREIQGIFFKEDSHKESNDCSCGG
Outline: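 Inhibition was inferred from protease cleavage of non-phosphorylated peptide, measured as a coumarin/fluorescein ratio. Kinase reactions used 10 μM ATP for 1 h at room temperature.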

Fms = biological target: T2, Fms (Homo sapiens, UniProt P07333); experiment: AlphaScreen kinase assay, Fms; settings: read-out: IC50, activity toward kinase Fms
T2 construct: purchased Upstate Biotechnology
T2 sequence (P07333 20-972): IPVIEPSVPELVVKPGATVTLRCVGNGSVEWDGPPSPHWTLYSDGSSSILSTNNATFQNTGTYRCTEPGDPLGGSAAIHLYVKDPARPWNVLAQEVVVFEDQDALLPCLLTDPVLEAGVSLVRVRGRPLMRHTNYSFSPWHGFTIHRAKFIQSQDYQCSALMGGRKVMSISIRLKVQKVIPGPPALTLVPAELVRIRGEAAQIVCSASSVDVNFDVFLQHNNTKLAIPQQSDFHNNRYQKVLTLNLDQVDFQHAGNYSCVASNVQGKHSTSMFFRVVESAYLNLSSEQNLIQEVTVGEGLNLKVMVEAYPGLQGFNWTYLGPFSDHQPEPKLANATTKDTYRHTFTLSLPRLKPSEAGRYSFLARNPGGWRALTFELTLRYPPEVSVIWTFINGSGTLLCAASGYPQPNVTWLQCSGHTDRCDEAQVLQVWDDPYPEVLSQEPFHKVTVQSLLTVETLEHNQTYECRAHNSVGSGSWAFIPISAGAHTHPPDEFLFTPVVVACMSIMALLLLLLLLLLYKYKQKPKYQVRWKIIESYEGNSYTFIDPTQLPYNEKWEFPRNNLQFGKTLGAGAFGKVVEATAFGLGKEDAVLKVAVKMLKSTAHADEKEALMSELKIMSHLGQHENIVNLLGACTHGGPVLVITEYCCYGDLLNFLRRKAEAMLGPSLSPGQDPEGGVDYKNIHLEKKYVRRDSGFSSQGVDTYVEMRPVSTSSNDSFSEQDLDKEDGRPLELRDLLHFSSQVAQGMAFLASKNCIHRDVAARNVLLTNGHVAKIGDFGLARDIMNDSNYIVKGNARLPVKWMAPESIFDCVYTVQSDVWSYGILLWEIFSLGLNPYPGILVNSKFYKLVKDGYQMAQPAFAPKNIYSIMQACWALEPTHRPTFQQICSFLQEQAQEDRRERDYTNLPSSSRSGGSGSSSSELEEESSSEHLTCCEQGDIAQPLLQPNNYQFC

Kit = biological target: T3, Kit (Homo sapiens, UniProt P10721); experiment: AlphaScreen kinase assay, Kit; settings: read-out: IC50, activity toward kinase Kit
T3 construct: P1332.N6 BI PTP KIT M552-K948-X COD; His6 (N); made in house; host or cells: E. coli (PTP1B co-expressed)
T3 sequence (P10721 with tags, fused parts or gaps): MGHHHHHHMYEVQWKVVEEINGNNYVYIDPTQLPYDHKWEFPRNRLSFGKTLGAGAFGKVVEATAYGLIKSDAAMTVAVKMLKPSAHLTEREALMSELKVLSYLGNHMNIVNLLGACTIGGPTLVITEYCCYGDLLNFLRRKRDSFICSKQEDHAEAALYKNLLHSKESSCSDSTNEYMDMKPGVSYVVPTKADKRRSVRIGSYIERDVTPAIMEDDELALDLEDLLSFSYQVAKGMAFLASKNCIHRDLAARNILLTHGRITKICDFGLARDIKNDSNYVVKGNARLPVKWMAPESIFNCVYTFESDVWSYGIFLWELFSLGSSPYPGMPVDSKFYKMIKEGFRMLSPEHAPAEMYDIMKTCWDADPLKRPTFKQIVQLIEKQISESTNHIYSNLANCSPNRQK

Src = biological target: T4, Src (Homo sapiens, UniProt P12931); experiment: AlphaScreen kinase assay, Src; settings: read-out: IC50, activity toward kinase Src
T4 construct: P1144. pET-N6 BI-PTP SRC V86-L536-X; made in house
T4 sequence (P12931 with tags, fused parts or gaps): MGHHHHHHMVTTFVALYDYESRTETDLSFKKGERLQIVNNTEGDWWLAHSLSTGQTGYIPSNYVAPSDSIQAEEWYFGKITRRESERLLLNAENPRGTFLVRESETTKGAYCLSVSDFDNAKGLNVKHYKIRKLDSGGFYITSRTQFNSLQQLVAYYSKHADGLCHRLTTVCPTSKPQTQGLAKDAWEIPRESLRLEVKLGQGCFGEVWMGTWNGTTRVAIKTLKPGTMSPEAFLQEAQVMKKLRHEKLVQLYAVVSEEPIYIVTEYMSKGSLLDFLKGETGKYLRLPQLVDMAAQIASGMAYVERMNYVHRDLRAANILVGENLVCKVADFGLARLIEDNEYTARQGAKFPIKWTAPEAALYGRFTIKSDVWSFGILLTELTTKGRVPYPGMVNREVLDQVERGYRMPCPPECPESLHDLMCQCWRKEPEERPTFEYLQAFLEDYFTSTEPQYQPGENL

Akt3 = Akt3 (Homo sapiens, UniProt Q9Y243); experiment: AlphaScreen kinase assay, Akt3; settings: read-out: IC50, activity toward kinase Akt3
Sequence of Akt3 (Q9Y243 whole entry): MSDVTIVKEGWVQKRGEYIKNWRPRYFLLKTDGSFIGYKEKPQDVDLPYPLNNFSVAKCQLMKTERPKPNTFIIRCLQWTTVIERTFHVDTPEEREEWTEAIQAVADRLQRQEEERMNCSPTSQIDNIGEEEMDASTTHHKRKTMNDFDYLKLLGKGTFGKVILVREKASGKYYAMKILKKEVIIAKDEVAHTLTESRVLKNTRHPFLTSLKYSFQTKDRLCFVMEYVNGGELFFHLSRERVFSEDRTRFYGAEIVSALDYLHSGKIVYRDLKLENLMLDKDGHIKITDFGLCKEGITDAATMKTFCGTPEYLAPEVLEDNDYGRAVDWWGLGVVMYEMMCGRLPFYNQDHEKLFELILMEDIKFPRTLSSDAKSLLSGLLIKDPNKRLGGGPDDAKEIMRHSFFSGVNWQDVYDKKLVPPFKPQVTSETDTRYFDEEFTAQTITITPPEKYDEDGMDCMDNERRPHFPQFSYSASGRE
Outline: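 Uses phospho-specific antibody on acceptor beads plus streptavidin donor beads capturing biotinylated peptide substrate; singlet oxygen from donor excites nearby acceptor. Inhibitors tested in 8-point, 1:3 titrations starting from 20 mM DMSO solutions.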

Measured: IC50

Nc1cccc(-c2cnc3[nH]cc(C(=O)c4cccc(O)c4)c3c2)c1 [Compound P-0003]
≤ 10 µM: all assays above

O=C(c1cccc(O)c1)c1c[nH]c2nccc(Cl)c12 [Compound P-0012]
≤ 10 µM: EphB2 | Fms | Kit

CCCS(=O)(=O)Nc1ccc(F)c(C(=O)c2c[nH]c3ncc(-c4cccnc4)cc23)c1F [Compound P-0088, Propane-1-sulfonic acid [2,4-difluoro-3-(5-pyridin-3-yl-1H-pyrrolo[2,3-b]pyridine-3-carbonyl)-phenyl]-amide]
not listed: Akt3
≤ 10 µM: all other assays above

O=C(c1cccc(O)c1F)c1c[nH]c2ncc(Br)cc12 [Compound P-0067, (5-bromo-1H-pyrrolo[2,3-b]pyridin-3-yl)-(2-fluoro-3-hydroxy-phenyl)-methanone]
≤ 10 µM: all assays above

Cc1ccc(F)cc1C(=O)c1c[nH]c2ncc(-c3cccc(N)c3)cc12 [Compound P-0040]
≤ 10 µM: EphB2 | Kit | Src

O=C(c1cccc(O)c1F)c1c[nH]c2ncc(-c3ccccc3)cc12 [Compound P-0036, (2-fluoro-3-hydroxy-phenyl)-(5-phenyl-1H-pyrrolo[2,3-b]pyridin-3-yl)-methanone]
≤ 10 µM: all assays above

O=C(O)/C=C/c1cccc(-c2cnc3[nH]cc(C(=O)c4ccccc4F)c3c2)c1 [Compound P-0033]
≤ 10 µM: EphB2 | Fms | Kit

O=C(c1cccc(O)c1F)c1c[nH]c2ncc(-c3cccnc3)cc12 [Compound P-0027, (2-Fluoro-3-hydroxy-phenyl)-(5-pyridin-3-yl-1H-pyrrolo[2,3-b]pyridin-3-yl)-methanone]
≤ 10 µM: all assays above

O=C(c1cccc(O)c1)c1c[nH]c2ncc(Br)cc12 [Compound P-0019]
not listed: Src
≤ 10 µM: all other assays above

Oc1ccc(F)c(C(O)c2c[nH]c3ncc(-c4cccnc4)cc23)c1F (centres unmarked) [Compound P-0009, 2,4-difluoro-3-[hydroxy-(5-pyridin-3-yl-1H-pyrrolo[2,3-b]pyridin-3-yl)-methyl]-phenol]
not listed: Akt3
≤ 10 µM: all other assays above

Cc1c(O)cccc1C(=O)c1c[nH]c2ncc(-c3cccs3)cc12 [Compound P-0114, (3-Hydroxy-2-methyl-phenyl)-(5-thiophen-2-yl-1H-pyrrolo[2,3b]pyridin-3-yl)-methanone]
≤ 10 µM: all assays above

Cc1c(O)cccc1C(=O)c1c[nH]c2ncc(Br)cc12 [Compound P-0055, (5-Bromo-1H-pyrrolo[2,3-b]pyridin-3-yl)-(3-hydroxy-2-methyl-phenyl)-methanone]
≤ 10 µM: EphB2 | Src | Akt3

CCCS(=O)(=O)Nc1ccc(F)c(C(=O)c2c[nH]c3ncccc23)c1F [Compound P-0007, Propane-1-sulfonic acid [2,4-difluoro-3-(1H-pyrrolo[2,3-b]pyridine-3-carbonyl)-phenyl]-amide]
not listed: Akt3
≤ 10 µM: all other assays above

Cc1ccccc1C(=O)c1c[nH]c2nccc(-c3ccc(C(N)=O)cc3)c12 [Compound P-0017]
≤ 10 µM: EphB2 | Kit | Src

O=C(c1cc(O)ccc1F)c1c[nH]c2ncc(-c3ccccc3)cc12 [Compound P-0045]
≤ 10 µM: EphB2 | Fms | Src

COc1ccc(F)c(C(=O)c2c[nH]c3ncc(-c4cccnc4)cc23)c1 [Compound P-0090]
not listed: Akt3
≤ 10 µM: all other assays above

O=C(c1cc(O)ccc1F)c1c[nH]c2ncccc12 [Compound P-0005]
≤ 10 µM: all assays above

Cc1c(O)cccc1C(=O)c1c[nH]c2ncc(-c3ccccc3)cc12 [Compound P-0016, (3-Hydroxy-2-methyl-phenyl)-(5-phenyl-1H-pyrrolo[2,3b]pyridin-3-yl)-methanone]
not listed: Akt3
≤ 10 µM: all other assays above

O=C(c1cc(O)ccc1F)c1c[nH]c2ncc(-c3cccs3)cc12 [Compound P-0032]
not listed: Akt3
≤ 10 µM: all other assays above

Oc1ccc(F)c(Cc2c[nH]c3ncc(-c4cccnc4)cc23)c1F [Compound P-0078, 2,4-difluoro-3-(5-pyridin-3-yl-1H-pyrrolo[2,3-b]pyridin-3-ylmethyl)-phenol]
not listed: Akt3
≤ 10 µM: all other assays above

O=C(c1cc(O)ccc1F)c1c[nH]c2ncc(Br)cc12 [Compound P-0068, (5-Bromo-1H-pyrrolo[2,3-b]pyridin-3-yl)-(2-fluoro-5-hydroxy-phenyl)-methanone]
≤ 10 µM: EphB2 | Fms | Src

Cn1cc(C(F)(F)F)c(-c2ccc(S(=O)(=O)NCc3c[nH]c4ncccc34)s2)n1 [Compound P-0041]
not listed: Fms
≤ 10 µM: all other assays above

CS(=O)(=O)c1cccc(-c2cnc3[nH]cc(C(O)c4c(F)ccc(F)c4F)c3c2)c1 (centres unmarked) [Compound P-0020]
≤ 10 µM: EphB2 | Fms | Kit

Cc1ccc(S(=O)(=O)NCc2c[nH]c3nccc(-c4cccc(C#N)c4)c23)cc1 [Compound P-0072]
not listed: Akt3
≤ 10 µM: all other assays above

Cc1ccc(F)cc1C(=O)c1c[nH]c2ncc(-c3cccc(NS(C)(=O)=O)c3)cc12 [Compound P-0028]
≤ 10 µM: EphB2 | Kit | Src

O=C(O)/C=C/c1cccc(-c2cnc3[nH]cc(C(=O)c4cc(O)ccc4F)c3c2)c1 [Compound P-0010]
≤ 10 µM: EphB2 | Fms | Src

O=C(c1cccc(O)c1)c1c[nH]c2ncc(-c3cccnc3)cc12 [Compound P-0048]
≤ 10 µM: EphB2 | Fms | Akt3

CS(=O)(=O)c1cccc(-c2cnc3[nH]cc(C(=O)c4c(F)ccc(F)c4F)c3c2)c1 [Compound P-0102, [5-(3-Methanesulfonyl-phenyl)-1H-pyrrolo[2,3-b]pyridin-3-yl]-(2,3,6-trifluoro-phenyl)-methanone]
not listed: Akt3
≤ 10 µM: all other assays above

O=C(c1cccc(O)c1)c1c[nH]c2ncccc12 [Compound P-0011]
≤ 10 µM: EphB2 | Kit

O=C(c1cccc(O)c1)c1c[nH]c2ncc(Nc3ccccc3)cc12 [Compound P-0025]
not listed: Kit
≤ 10 µM: all other assays above

Oc1cc(O)cc(Cc2c[nH]c3ncc(-c4ccsc4)cc23)c1 [Compound P-0093]
≤ 10 µM: EphB2 | Fms | Kit
